Four compounds from ChEMBL document CHEMBL2074113, “Interaction of human organic anion transporters 2 and 4 with organic anion transport inhibitors” (J Pharmacol Exp Ther, 2002) can be followed below.

Data set [1] concerns the target T1, Solute carrier family 22 member 11 (Homo sapiens, UniProt Q9NSA0).
T1 sequence (Q9NSA0 whole entry): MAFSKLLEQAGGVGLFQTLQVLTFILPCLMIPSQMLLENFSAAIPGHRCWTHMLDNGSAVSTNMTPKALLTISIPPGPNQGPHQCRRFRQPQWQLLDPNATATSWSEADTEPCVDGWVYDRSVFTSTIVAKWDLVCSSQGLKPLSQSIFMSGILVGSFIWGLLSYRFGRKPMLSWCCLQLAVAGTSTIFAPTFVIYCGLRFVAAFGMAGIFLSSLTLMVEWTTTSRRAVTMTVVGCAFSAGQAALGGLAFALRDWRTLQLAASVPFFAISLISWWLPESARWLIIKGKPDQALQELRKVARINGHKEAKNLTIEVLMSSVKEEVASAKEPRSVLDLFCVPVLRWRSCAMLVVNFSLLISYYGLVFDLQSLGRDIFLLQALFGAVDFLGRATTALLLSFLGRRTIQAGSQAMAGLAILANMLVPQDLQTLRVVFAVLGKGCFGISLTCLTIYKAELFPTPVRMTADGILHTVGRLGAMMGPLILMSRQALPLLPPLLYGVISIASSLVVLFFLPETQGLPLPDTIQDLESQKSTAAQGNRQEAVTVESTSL
The experiment in a line: TP_TRANSPORTER: inhibition of E1S uptake in OAT4-expressing S2 cells. Format: functional, cell-based.

Data set [2] deals with T2, Solute carrier family 22 member 7 (Homo sapiens, UniProt Q9Y694).
T2 sequence (Q9Y694 whole entry): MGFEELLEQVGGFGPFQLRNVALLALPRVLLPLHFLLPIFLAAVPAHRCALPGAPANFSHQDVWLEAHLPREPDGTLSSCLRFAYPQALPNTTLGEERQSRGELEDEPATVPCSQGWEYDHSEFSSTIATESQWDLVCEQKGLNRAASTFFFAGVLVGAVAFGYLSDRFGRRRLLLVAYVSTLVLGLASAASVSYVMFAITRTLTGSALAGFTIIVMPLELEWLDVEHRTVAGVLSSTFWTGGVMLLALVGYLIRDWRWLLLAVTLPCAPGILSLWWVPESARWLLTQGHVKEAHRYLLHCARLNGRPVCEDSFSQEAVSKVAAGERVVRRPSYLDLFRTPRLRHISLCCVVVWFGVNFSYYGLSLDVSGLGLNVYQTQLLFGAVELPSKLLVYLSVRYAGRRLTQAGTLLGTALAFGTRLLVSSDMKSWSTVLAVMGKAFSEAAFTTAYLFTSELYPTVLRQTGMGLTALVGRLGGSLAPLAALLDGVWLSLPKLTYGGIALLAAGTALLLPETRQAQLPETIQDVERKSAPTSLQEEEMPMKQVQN
The experiment in a line: TP_TRANSPORTER: inhibition of PGF2alpha uptake in OAT2-expressing S2 cells. It is filed as functional, cell-based. The conditions noted are these: for Activity: s2.

As for `O=C(O)CCNC(=O)c1ccccc1` [BETAMIPRON], the inhibitory constant (Ki) in data set [1] was found to be 502 µM. Also, the Activity result in data set [2] is “is not an inhibitor [-]”.
Consider `CC1(C)C[C@@H]1C(=O)N/C(=C\CCCCSC[C@H](N)C(=O)O)C(=O)O` [CILASTATIN], for which, in data set [2], the Activity entry is “is not an inhibitor [-]”.
Consider `CCCN(CCC)S(=O)(=O)c1ccc(C(=O)O)cc1` [PROBENECID], for which the Ki in data set [2] was 766 µM.
Turning to `CCCn1c(=O)c2[nH]c(C34CC5CC(CC3C5)C4)nc2n(CCC)c1=O` [ROLOFYLLINE], affinity in data set [1] was put at a Ki of 20.7 µM. Also, the Activity entry in data set [2] was “is not an inhibitor [-]”.
